Test results taken from patent EP2308883A1, “New derivatives of thieno[2,3-b]pyridine and 5,6,7,8 tetrahydrothieno[2,3 b]quinoline in particular useful in the treatment of malaria” (priority 2009, dated 2011).

Experiments:
[1] = system: mammalian kinases; settings: compared with roscovitine and staurosporine
Description: (§1) Compound No. 22 was also tested on a small panel of 22 purified kinases, including 4 P. falciparum kinases. […] To complement this selectivity study, compound No 22 was run on two large scale selectivity panels: Prof. P. Cohen's kinase selectivity panel (76 kinases) (Bain J, Plater L, Elliott M, Shapiro N, Hastie CJ, McLauchlan H et al. (2007). The selectivity of protein kinase inhibitors: a further update. Biochem J. 408: 297-315.) and the Ambit Biosciences interaction assay (402 kinases) (Karaman MW, Herrgard S, Treiber DK, Gallant P, Atteridge CE, Campbell BT, Chan KW, Ciceri P, Davis MI, Edeen PT, Faraoni R, Floyd M, Hunt JP, Lockhart DJ, Milanov ZV, Morrison MJ, Pallares G, Patel HK, Pritchard S, Wodicka LM, Zarrinkar PP. A quantitative analysis of kinase inhibitor selectivity. Nat Biotechnol. 2008 Jan;26(1):127-32.).

[2] = system: panel of 22 purified kinases, including 4 P. falciparum kinases; assay: Small panel of 22 purified kinases; type: biochemical; settings: at concentrations up to 10 µM
Description: as §1

Q: Which results are given for `N#Cc1c(N)nc2sc(C(=O)c3cccc(Cl)c3)c(N)c2c1-c1ccccc1Cl` [Compound 22, 3,6-diamino-2-(3-chlorobenzoyl)-4-(2-chlorophenyl)thieno[2,3-b]pyridine-5-carbonitrile]?
A: inhibition of mammalian kinases in selectivity panels [1]: very poor, if at all, inhibitor of mammalian kinases; inhibition of kinases of the panel besides PfGSK-3 [2]: no kinase was found to be inhibited
